As a reminder, the melting point is the temperature of the solid-liquid transition.

Each structure is given as a SMILES string.

In the case of `CCCCCS(=O)(=O)NC(=O)/C=C/c1cc(OCCCC)nn1Cc1ccc(C(F)(F)F)cc1`, the melting point is 159 to 160 °C.

`CCSC1=NCC(=O)N1c1cc(Cl)ccc1C` gave a melting point of 137 to 139 °C.

`Cc1nn(C)c(O)c1C(=O)c1ccc(Cl)c(OCCn2cnnn2)c1Cl`: the melting point is 63 to 68 °C.

Compound `COc1ccc(-c2ccc3[nH]c(=O)ccc3c2)cc1` showed a melting point of 262 to 264 °C.

The compound `COc1ccc(CC2SC(=O)NC2=O)cc1NC(=O)Cc1ccc(C(F)(F)F)cc1` (stereo not given) came in with a melting point of 147 to 149 °C.

With `CN(C)CCCN=C1CC(c2ccc(C(F)(F)F)cc2)Cc2c1c(=O)c1cc(Cl)ccc1n2O` (stereo not given), the melting point was 130 to 135 °C.

On to `COc1ccc(Cn2c(O)nc3c(-c4ccco4)ncnc32)cc1`, for which the melting point was in the range of 143 to 144 °C.

With `CN1CC(OCC=C(Cl)Cl)(C(F)(F)F)c2cc(Cl)ccc2NC1=O` (stereo not given), the melting point is 149 to 150 °C.

The compound `COC(=O)C1=C(C)NC(CO)=C(C(=O)OC)C1c1cccc2c(=O)c(C)c(-c3ccccc3)oc12` (stereo not given) showed a melting point of 231 to 233 °C.

The compound `C=CCOc1cccc2c1C(=O)OC2=O` gave a melting point of 115 to 117 °C.

With `Cc1cccc(OC(C)(C)C(=O)O)c1C`, the melting point lay within 71 to 73 °C.

`CSc1ccc(C(=N)Nc2ccc(C)c(C)c2)cc1`: the melting point was 111 to 113 °C.

In the case of `CC(C)(C)OC(=O)N[C@@H](CC(=O)OCc1ccccc1)C(=O)NCCc1ccc(C(=O)OCc2ccccc2)cc1`, the melting point was 99 to 100 °C.

The compound `COC(=O)CCc1cc(C)cc(NC(C)=O)n1` yielded a melting point of 82 °C.

The compound `Cc1ncccc1CC(=NC#N)NC1CCc2cc(F)ccc21` (stereo not given) had a melting point of 148 to 149 °C.

On to `Cc1nc2ccc(S(=O)(=O)c3cccc4cnccc34)cc2nc1C`, for which the melting point was in the range of 198 to 200 °C.

On to `CCCn1nc2c(N)nc3c(c2c1CC(C)(C)S(C)(=O)=O)CCCC3`, for which the melting point is 209 to 211 °C.

As for `Oc1c(Br)cc(F)cc1Cc1cc(Cl)cc(Cc2cc(F)cc(Br)c2O)c1O`, the melting point was in the range of 192 to 194 °C.

In the case of `O=C(Nc1cccc(C(F)(F)F)c1)c1coc2cc(Oc3cc(CO)ncn3)ccc12`, the melting point was in the range of 181 to 182 °C.

`Cc1ccc(C(=O)N(C)Cc2cccc(-c3ccc(CC4SC(=O)NC4=O)cc3)c2)cc1` (stereo not given): the melting point was 198 °C.

As to `CNC(=S)NCCSCc1cnccn1`, the melting point lay in the range of 99.5 to 100 °C.

The compound `CCCCCN1C(=O)C2CC(c3ccc(N)cc3)(C2)C1=O` gave a melting point of 92 to 94 °C.

Regarding `CC(=O)c1cnc(Cl)c(Cl)c1`, the melting point is 80 °C.

`COc1cc(COc2nn(-c3ccccc3)cc2/C=C/c2ccccn2)ccc1OCc1nc(-c2ccco2)oc1C` returned a melting point of 135 to 136 °C.

On to `O=C(Cl)c1csc(=O)[nH]1`, for which the melting point stood at 184 °C.

Regarding `CCC1(CCCCCl)C(=O)Nc2cc(F)c(Cl)cc21` (stereo not given), the melting point is 131 to 133 °C.

`CC(C)(CCc1cc2cc(Cl)ccc2n1S(=O)(=O)c1ccc2ncsc2c1)C(=O)O` yielded a melting point of 151 °C.

As to `COc1ccc(C(=O)/C(=C\c2ccccc2)C(=O)OC(C)(C)C)c(O)c1`, the melting point was 105 to 107 °C.

`C[C@@H](Cn1ncc2ccc3oc(C(N)=O)nc3c21)N=[N+]=[N-]` returned a melting point of 162 to 164 °C.

Consider `Cc1c(C2=CCC(Cc3ccccc3)(N(C)C)CC2)[nH]c2ccc(F)cc12` (stereo not given), for which the melting point was 62 to 65 °C.

`O=C1NCCN1c1ccc(C(F)(F)F)cc1`: the melting point lay in the range of 169 to 171 °C.

Turning to `CC(O)=C1C(=O)CC(c2ccccc2C)CC1=O` (stereo not given), the melting point was in the range of 78 to 81 °C.

For `CN1CCC(c2c(O)cc(O)c3c(=O)cc(-c4ccc(O)cc4Cl)oc23)C1CO` (stereo not given), the melting point is above 300 °C.

`CCC(=O)C1=C(O)CC(c2ccc3c(c2)OCO3)CC1=O` (stereo not given) had a melting point of 129 °C.

As to `COC1=Cc2ccccc2C(=CC(=O)O)c2ccsc21`, the melting point lay in the range of 163 to 167 °C.

`Nc1ccc2c(c1)Cc1c(-c3ccccc3)n[nH]c1-2`: the melting point is 228 to 230 °C.

On to `COc1cccc(N(C(=O)c2ccc(-c3cccc(C)c3)s2)C2CC2)c1`, for which the melting point came to 68 °C.

The compound `COC(=O)C1=NC2=COc3cc(C)c(Cl)cc3N2C1C(=O)O` (stereo not given) registered a melting point of 240 to 244 °C.

In turn, `COCCNC(=O)Cc1ccc2ccn(C3CCN(CCc4ccc(F)cc4)CC3)c2c1` showed a melting point of 113 to 114 °C.

In turn, `COC(=O)c1c(C)c([N+](=O)[O-])cc2nc(Cl)c(Cl)nc12` yielded a melting point of 155 to 157 °C.

In the case of `CCCCc1ncc(/C=C(\Cc2cccs2)C(=O)O)n1Cc1cccc([N+](=O)[O-])c1`, the melting point was 182 to 184 °C.

Regarding `Cc1c(-c2ccc3oc(=O)n(C)c3c2)nc2c(O)cccn12`, the melting point was above 280 °C.

For `S=C(NN=Cc1cccc(-c2ccccc2Cl)n1)NN1CCCC1`, the melting point is 187 to 188 °C.

In turn, `CC(=O)CC(=O)N[C@H](CF)[C@H](O)c1ccc(S(C)(=O)=O)cc1` displayed a melting point of 139 to 141 °C.

Compound `O=C(COc1ccc(Cc2ccc(Cl)cc2)cc1)OCc1cccnc1` displayed a melting point of 77 to 78 °C.

Consider `Fc1ccc(-c2cc3ccccc3[nH]c2=S)cc1`, for which the melting point fell in the range of 259 to 262 °C.

With `Cn1cc(-c2cc(-c3cnc4[nH]ccc4c3)ccn2)n(-c2ccc(C(C)(C)C(N)=O)cc2)c1=O`, the melting point stood at 299 °C.

Compound `Nc1ncc(-c2ccc(=O)[nH]n2)c(-c2cccc(F)c2)n1` showed a melting point of 249 °C.

For the compound `COc1ccc(OC)c2c1CCOC2CCl` (stereo not given), the melting point fell in the range of 101 to 102 °C.

With `O=C1C(CCO)Oc2ccccc2N1Cc1ccncc1` (stereo not given), the melting point fell in the range of 153 to 154 °C.

`O=C1CCC(c2ccc3c(c2)NCCO3)=NN1` showed a melting point of 198 to 199 °C.

Compound `N=C(N)c1ccc2c(c1)N(CC(=O)c1ccc(Br)cc1)C(=O)CN2` showed a melting point of 145 to 150 °C.

Compound `O=C(O)c1cc(C(=O)C(F)(F)F)cc2c1OC(c1ccccc1)(c1ccccc1)O2` gave a melting point of 187 °C.

In turn, `FC(F)(F)c1ccc(NC2CCNCC2)nc1` had a melting point of 128 °C.

Compound `O=C(c1ccc(O)cc1)c1cccc(O)c1` came in with a melting point of 200 to 201 °C.

As for `CN1CCC(O)c2cccc(CSc3nc4ccccc4[nH]3)c21` (stereo not given), the melting point lay in the range of 144 to 145 °C.

Take `CC(C)(O)C(=O)N[C@H]1CC[C@H](CCN2CCC(c3cccc4c3CCO4)CC2)CC1`: the melting point came to 163 °C.

In turn, `CN(C(=O)COc1nnc(-c2ccco2)s1)c1ccccc1` returned a melting point of 94 °C.

In turn, `CCC(=O)OC(C)c1ccc(O)cc1` (single isomer, unassigned; (+)) registered a melting point of 71 to 72 °C.

Consider `Cn1cnc2c1c(=O)n(CCCBr)c(=O)n2C`, for which the melting point fell in the range of 142 to 144 °C.

Compound `CCOC(=O)COc1ccc(C(=O)c2ccoc2)c2ccccc12` gave a melting point of 103 °C.

On to `NC(=O)c1cnn2c1N(C(=S)NC(=O)c1ccccc1)CC=C2c1cccc(C(F)(F)F)c1`, for which the melting point was in the range of 210 to 212 °C.

`COc1cc2c(c3c1OC(C)(C)C3)C(c1ccncc1Cl)=NC(C)(C)C2` displayed a melting point of 126 to 128 °C.

On to `O=C(O)Cc1ccc2c(c1)C(=O)Cc1cccnc1S2`, for which the melting point was in the range of 212 to 214 °C.

With `CC(=O)N1CCC(c2nccc3occc23)CC1`, the melting point fell in the range of 108 to 110 °C.

In turn, `COc1ccc(C(=O)Nc2ccc(C(=O)O)c3ccccc23)cc1OC` came in with a melting point of 256 to 259 °C.

The compound `COC(=O)c1ccc(C2CCC(=O)CC2)cc1` registered a melting point of 91 to 92 °C.

In the case of `O=S(=O)(NCCCCOc1ccc(-c2ccncn2)cc1)c1ccc(Br)cc1`, the melting point fell in the range of 131 to 133 °C.

Turning to `CC(C)CCOc1cccc2oc(C(=O)O)cc(=O)c12`, the melting point lay within 179 to 180 °C.

`CCc1c(-c2ccc(OCc3ccccc3)cc2)c2cc(C(=O)O)c3cccc1n32` returned a melting point of 223 to 224 °C.

With `CC1(C)Oc2ccc(C#N)cc2[C@@H](n2c(=O)[nH]c3ccccc32)[C@@H]1O` (relative stereo), the melting point was in the range of 255 to 257 °C.

As for `O=S(=O)(Oc1ccc(-c2cc3ccccc3[nH]2)cc1O)c1ccccc1`, the melting point is 158 °C.

As for `COc1cc(OC)c(C2CCN(C)CC2OC(C)=O)c(Oc2cccs2)c1C(C)=O` (stereo not given), the melting point was in the range of 153 to 154 °C.

In the case of `CCOC(=O)COc1ccc2cc(-c3oc4ccccc4c3CCC3CCCC3)ccc2c1Br`, the melting point lay in the range of 115 to 120 °C.

Regarding `Cc1ncc(-c2ccccc2)s1`, the melting point is 72 to 74 °C.

Compound `CCOC(=O)C1(NS(=O)(=O)c2ccc(F)cc2)CCCCC1` yielded a melting point of 96 to 98 °C.

The compound `CC(C)NCC(O)COc1cccc2c1CC1OC1C2` (stereo not given) showed a melting point of 106 to 110 °C.

The compound `O=C(O)c1nn(Cc2cccc(O)c2)c2c1CCc1cc(OCc3cncnc3)ccc1-2` displayed a melting point of 251 to 256 °C.

Consider `O=C(Nc1ccc(C(=O)N2C[C@H]3C[C@H](F)CN3c3ccccc32)cc1)c1ccccc1-c1ccccc1`, for which the melting point was 136 to 145 °C.

As to `CC1CC(C)CN(Cc2ccc(C=CC(=O)Nc3ccc(-c4ccc(Cl)cc4)cc3)cc2)C1` (stereo not given), the melting point was in the range of 217 to 218 °C.

Compound `O=C(N(CCN(C(=O)C(F)(F)F)c1cccc2[nH]cc(Cl)c12)Cc1ccccc1)C(F)(F)F` had a melting point of 139 to 142 °C.

As for `CC(=O)c1cc(C#N)c(=O)[nH]c1-c1ccncc1`, the melting point is 255 to 257 °C.

`CC(C)(C)OC(=O)N1CCN(c2ccc(OCC3(C)CCn4cc([N+](=O)[O-])nc4O3)cc2)CC1` (stereo not given) had a melting point of 208 to 209 °C.

For `CCN(C(=O)C(C)n1c(=O)n(C)c2nc(-c3ccccc3)ncc21)c1ccccc1` (stereo not given), the melting point was in the range of 150 to 151 °C.

For `Cc1nc2c3c(ccn2c1C)C(O)C(O)C(c1ccsc1)N3` (stereo not given), the melting point lay in the range of 134 to 138 °C.

As to `CCc1c(C(C)C)cc(C(C)C)c(C(C)O)c1-c1ccc(F)cc1` (single isomer, unassigned; (+)), the melting point was in the range of 143 to 145 °C.

`O=C(O)COc1ccc2c(c1)CCc1sc(SC(c3ccccc3)c3ccccc3)nc1-2` displayed a melting point of 193 to 195 °C.

As for `CC1(O)NC(=O)OC12CCNCC2` (stereo not given), the melting point was 192 to 194 °C.

`O=[N+]([O-])c1cc(CCCl)ccc1O`: the melting point lay in the range of 53 to 55 °C.

For `CN(C)CC(=O)NCC#Cc1cnc2c(c1)N(Cc1c(Cl)cccc1Cl)CCN2`, the melting point was above 200 °C.

(Values after a melting point compilation (Tetko et al.; mined from patent text by program, amines drawn as free bases though some values may be those of a salt).)
